Here are results for one molecule from patent US9049874B2, “Use of azaperone for reducing antibiotic usage” (Elanco Animal Health Ireland Limited, priority 2008, dated 2015).

This experiment relates to weaned pigs. Kind of experiment: Preclinical study of the effects of azaperone administered via drinking water: therapeutic usage of antibiotics. In kind it is in vivo. As to conditions: for number of pigs treated (therapeutic use of antibiotics): 6 mg azaperone per liter drinking water for first 3 days. On the procedure: The study was performed in weaned pigs to investigate the effect of azaperone that was continuously orally administered via drinking water on postweaning diarrhoea and associated usage of antibiotics, behaviour, feed conversion, growth and homogeneity of growth. Groups of approximately 250 pigs were enrolled in the study starting from the moment they were weaned. The pigs were housed according to everyday farming conditions in a conventional pig farm. All pigs were housed in similar buildings. Each group was housed in 2 compartments, gilts and barrows were housed in separate compartments. Pigs were kept in pens of approximately 12 individuals each. After weaning, the piglets were housed in continuous artificial light for the first 48 hours. Afterwards, pigs were housed in continuous darkness for the further duration of the study, except during observations (twice a day). During the course of the study, pigs were not vaccinated. A metaphylactic colistine treatment via drinking water was applied in each group starting from the fifth day after weaning. Treatment continued for seven days. Pigs were fed ad libitum. Troughs were filled automatically with a computerized system that records the supplied weight of feed per pen. During the first ten days of the nursery period, pigs were fed a pelleted weaner feed which had also been available to the piglets in the farrowing unit. Between the 10th and 15th day at the nursery, the weaner feed was gradually replaced by grower pellets which have been given until the 35th day. Finally a switch was made between the 35th and the 40th day from grower pellets to starter pellets. Tap water was available during the whole period of the study and was supplied via a water nipple in the feeding trough. The drinking water comprising azaperone was obtained by diluting Stresnil™ injection in water to obtain a concentration of 6 mg azaperone per liter drinking water. A primary dilution was prepared by diluting 90 ml of Stresnil™ 4% injectable solution with tap water to obtain 6 liters of preparation. This primary dilution was linked for 24 hours with an automatic dosing system which continuously diluted the preparation in the drinking water at a rate of 1 to 100. One preparation of the primary dilution was sufficient to treat 600 liters of drinking water which exceeded the anticipated daily consumed volume of water by the pigs in one compartment. The two following days, a new primary dilution was made fresh each morning and linked to the automatic dosing system for 24 hours. This study was a controlled parallel study with 4 sequential groups of approximately 250 weaned pigs each. The first and third group were treated with azaperone via the drinking water for 3 consecutive days. The second and fourth group were control groups treated with placebo (plain drinking water). [table] On day one of the test period, water containing 6 mg azaperone per liter or placebo, was made available. Starting from the fourth day, the drinking water no longer contained azaperone. All pigs followed the normal procedures for further fattening. No pigs were brought to the slaughterhouse during the study (3 days dosing and 39 days follow-up). In order to assess the effect of the oral azaperone administration on the onset of postweaning diarrhoea and concomittant therapeutic usage of antibiotics, the occurrence of diarrhoea was followed in groups 1 to 4 and recorded daily by the Principal Investigator. All individual pens were checked by the Principal Investigator and a diarrhoea score was noted as follows: Any use of antibiotics in groups 1 to 4 was recorded the first three weeks after weaning and grouping of the animals. The decision to treat an animal with antibiotics was made by the Principal Investigator according to everyday practice on that farm.

[1] abbreviates: during the nursery period, azaperone-treated group.

As to `O=C(CCCN1CCN(c2ccccn2)CC1)c1ccc(F)cc1` [azaperone], the “usage of antibiotics compared to placebo-treated groups” value (6 mg/liter water during first three days of 42 day test period) is “significant reduction of the usage of antibiotics”. In addition, the “number of piglets treated with antibiotics (conclusion)” value (6 mg/liter water during first three days of 42 day test period, vs. 29 in placebo) was determined as 11. Also, the “number of individual antibiotic treatments (conclusion)” value (6 mg/liter water during first three days of 42 day test period, vs. 33 in placebo) was 13. Under setting [1], the “number of ampicilline injections” value stood at 1, the “number of enrofloxacine injections” value stood at 4, the “number of oxytetracycline injections” value was 2 and the “number of piglets treated with antibiotics for curative reasons” value was determined as 7 piglets. Besides, the “total number of individual injections with antibiotics” value under setting [1] was found to be 7 injections. Moreover, the “number of pigs treated (therapeutic use of antibiotics)” value (from here on “number of pigs treated”) (week 1 after weaning) was found to be 4. The “number of pigs treated” value (week 2 after weaning) is on record as 3. The “number of pigs treated” value (week 3 after weaning) turned out to be 0.
